Laboratory results from patent US8557763B2, “Synthetic peptides that enhance tight junction permeability” (Alba Therapeutics Corporation, priority 2007, dated 2013).
Where no end group is shown, it is not given here. [ ]: non-standard residue; d: D form. AllylGly = C=CC[C@H](N)C(=O)O

Key:
[1] = tested on: CaCo2 monolayers; test: Lucifer Yellow (LY) permeability assay through CaCo2 monolayers; format: cell-based; design: key to Enhanced LY permeability: + indicates an enhancement of the permeability of the tight junctions were observed; − indicates no enhancement of permeability was observed; details: CaCo2 monolayers, Lucifer Yellow flux
Source text: (§1) Agonists of tight junctions can be identified by their ability to enhance the flux of compounds (e.g. ions, Lucifer Yellow) through a cell monolayer that comprises tight junctions; or by their ability to reduce TEER across a cell monolayer that comprises tight junctions. Treatment of CaCo2 monolayers with peptide FCIGRL (SEQ ID NO: 1) led to a 51-fold enhancement of Lucifer Yellow permeability through CaCo2 monolayers compared to vehicle alone.
(§2) Tight junction agonists can be identified and tested using the following method:
(§3) Determination of TEER and Lucifer Yellow Flux
(§4) Prepare Modified Hank's Balanced Salt Solution (MHBSS) by obtaining 1 L bottle of HBSS removing 10 ml of HBSS and replacing it with 10 ml HEPES buffer pH 7.0. Adjust pH to 7.4±0.1 using concentrated NaOH (10N).
(§5) Remove CaCo-2 cells from incubator, grown on 12-well, 3.0 μM, polycarbonate Transwell® filters (Corning) and record passage#, date cells seeded and age in days.
(§6) Aspirate cell culture medium from both the apical (AP) and basolateral (BL) compartments, replacing with 0.5 ml and 1.5 ml of MHBSS, respectively. Incubate cells at 37° C. for 30 minutes.
(§7) Aspirate solution from the apical compartment of each filter (n=3 per condition) and replace with 0.5 ml of control and test solutions containing Lucifer Yellow and test compound if appropriate.
(§8) Place all plates into incubator set at 37° C. (±0.2), 50 RPM (±5) for a total of 180 minutes.
At t=60, 120 and 180 minutes remove […] from each basolateral compartment and place it in a 96-well plate for Lucifer Yellow analysis, replace with 100 μl of MHBSS.
Make a Lucifer Yellow standard curve with the following dilutions (7500 μM, 3750 μM, 750 μM, 375 μM, 37.5 μM, 7.5 μM, 3.75 μM, 0.75 μM) and pipette 100 μL of each into a 96-well plate except for the first three standards mentioned above which require a 1:10 dilutions prior to transferring to the 96-well plate.
Harvest the remaining start solutions and what is left in each apical compartment into 1.5 ml vials. Freeze at −20° C. for future analysis.
Analyze each 96-well plate in a Tecan Spectra Fluor Plus using Magellan at 485 and 535 nm.
(§9) Cells: CaCo-2 cells passage 40-60 grown on Transwell® plates for 21-28 days
(§10) Culture Medium: DMEM supplemented with 10% fetal bovine serum, 1% NEAA, 1% Penn/Strep
(§11) Buffers: Hank's Balanced Salt Solution (HBSS) without calcium and magnesium
(§12) Flasks: 100×20 mm Tissue culture dish Falcon.
(§13) Plates: 12 well polycarbonate Transwell® filters; 0.3 uM pore size

[2] = tested on: CaCo2 monolayers; test: Trans Epithelial Electric Resistance (TEER) across CaCo2 monolayers; format: cell-based; design: key to Reduced TEER: + indicates an enhancement of the permeability of the tight junctions were observed; − indicates no enhancement of permeability was observed; details: CaCo2 monolayers
Source text: as §1
Treatment of CaCo2 monolayers with peptide FCIGRL led to a 16-fold decrease in TEER across CaCo2 monolayers compared to vehicle alone.
as §2, §3, §4, §5, §6
Using the MilliCell®-ERS instrument (Millipore), measure and record the transepithelial electrical resistance (TEER) across each filter and record.
as §7, §8
At t=30, 60, 120 and 180 minutes, measure and record the transepithelial electrical resistance (TEER) across each filter using the MilliCell-ERS instrument.
as §9, §10, §11, §12, §13

Row | Substance | Enhanced LY permeability [1] | Reduced TEER [2]
1 | 33 (F[AllylGly]EGRL-NH2; N-terminus assumed; SMILES C=CC[C@H](NC(=O)[C@@H](N)Cc1ccccc1)C(=O)N[C@@H](CCC(=O)O)C(=O)NCC(=O)N[C@@H](CCCNC(=N)N)C(=O)N[C@@H](CC(C)C)C(N)=O) [compound 33] | + | +
2 | 51 (F[AllylGly]IKRL-NH2; N-terminus assumed; SMILES C=CC[C@H](NC(=O)[C@@H](N)Cc1ccccc1)C(=O)N[C@H](C(=O)N[C@@H](CCCCN)C(=O)N[C@@H](CCCNC(=N)N)C(=O)N[C@@H](CC(C)C)C(N)=O)[C@@H](C)CC) [compound 51] | − | −
3 | 56 (F[AllylGly]IGDL-NH2; N-terminus assumed; SMILES C=CC[C@H](NC(=O)[C@@H](N)Cc1ccccc1)C(=O)N[C@H](C(=O)NCC(=O)N[C@@H](CC(=O)O)C(=O)N[C@@H](CC(C)C)C(N)=O)[C@@H](C)CC) [compound 56] | + | +
4 | 38 (F[AllylGly]YGRL-NH2; N-terminus assumed; SMILES C=CC[C@H](NC(=O)[C@@H](N)Cc1ccccc1)C(=O)N[C@@H](Cc1ccc(O)cc1)C(=O)NCC(=O)N[C@@H](CCCNC(=N)N)C(=O)N[C@@H](CC(C)C)C(N)=O) [compound 38] | + | +
5 | 76 (F[AllylGly]IGRF-NH2; N-terminus assumed; SMILES C=CC[C@H](NC(=O)[C@@H](N)Cc1ccccc1)C(=O)N[C@H](C(=O)NCC(=O)N[C@@H](CCCNC(=N)N)C(=O)N[C@@H](Cc1ccccc1)C(N)=O)[C@@H](C)CC) [compound 76] | + | +
6 | 87 (F[AllylGly]IGRI-NH2; N-terminus assumed; SMILES C=CC[C@H](NC(=O)[C@@H](N)Cc1ccccc1)C(=O)N[C@H](C(=O)NCC(=O)N[C@@H](CCCNC(=N)N)C(=O)N[C@H](C(N)=O)[C@@H](C)CC)[C@@H](C)CC) [compound 87] | + | +
7 | 80 (F[AllylGly]IGRE-NH2; N-terminus assumed; SMILES C=CC[C@H](NC(=O)[C@@H](N)Cc1ccccc1)C(=O)N[C@H](C(=O)NCC(=O)N[C@@H](CCCNC(=N)N)C(=O)N[C@@H](CCC(=O)O)C(N)=O)[C@@H](C)CC) [compound 80] | + | +
8 | 23 (F[AllylGly]FGRL-NH2; N-terminus assumed; SMILES C=CC[C@H](NC(=O)[C@@H](N)Cc1ccccc1)C(=O)N[C@@H](Cc1ccccc1)C(=O)NCC(=O)N[C@@H](CCCNC(=N)N)C(=O)N[C@@H](CC(C)C)C(N)=O) [compound 23] | + | +
9 | 26 (F[AllylGly]SGRL-NH2; N-terminus assumed; SMILES C=CC[C@H](NC(=O)[C@@H](N)Cc1ccccc1)C(=O)N[C@@H](CO)C(=O)NCC(=O)N[C@@H](CCCNC(=N)N)C(=O)N[C@@H](CC(C)C)C(N)=O) [compound 26] | + | +
10 | 74 (F[AllylGly]IGRD-NH2; N-terminus assumed; SMILES C=CC[C@H](NC(=O)[C@@H](N)Cc1ccccc1)C(=O)N[C@H](C(=O)NCC(=O)N[C@@H](CCCNC(=N)N)C(=O)N[C@@H](CC(=O)O)C(N)=O)[C@@H](C)CC) [compound 74] | + | +
11 | 85 (F[AllylGly]IGRM-NH2; N-terminus assumed; SMILES C=CC[C@H](NC(=O)[C@@H](N)Cc1ccccc1)C(=O)N[C@H](C(=O)NCC(=O)N[C@@H](CCCNC(=N)N)C(=O)N[C@@H](CCSC)C(N)=O)[C@@H](C)CC) [compound 85] | + | +
12 | 77 (F[AllylGly]IGRA-NH2; N-terminus assumed; SMILES C=CC[C@H](NC(=O)[C@@H](N)Cc1ccccc1)C(=O)N[C@H](C(=O)NCC(=O)N[C@@H](CCCNC(=N)N)C(=O)N[C@@H](C)C(N)=O)[C@@H](C)CC) [compound 77] | + | −
13 | 22 (F[AllylGly]PGRL-NH2; N-terminus assumed; SMILES C=CC[C@H](NC(=O)[C@@H](N)Cc1ccccc1)C(=O)N1CCC[C@H]1C(=O)NCC(=O)N[C@@H](CCCNC(=N)N)C(=O)N[C@@H](CC(C)C)C(N)=O) [compound 22] | − | −
14 | 75 (F[AllylGly]IGRR-NH2; N-terminus assumed; SMILES C=CC[C@H](NC(=O)[C@@H](N)Cc1ccccc1)C(=O)N[C@H](C(=O)NCC(=O)N[C@@H](CCCNC(=N)N)C(=O)N[C@@H](CCCNC(=N)N)C(N)=O)[C@@H](C)CC) [compound 75] | + | −
15 | 78 (F[AllylGly]IGRG-NH2; N-terminus assumed; SMILES C=CC[C@H](NC(=O)[C@@H](N)Cc1ccccc1)C(=O)N[C@H](C(=O)NCC(=O)N[C@@H](CCCNC(=N)N)C(=O)NCC(N)=O)[C@@H](C)CC) [compound 78] | + | −
16 | 6 (Q[AllylGly]IGRL-NH2; N-terminus assumed; SMILES C=CC[C@H](NC(=O)[C@@H](N)CCC(N)=O)C(=O)N[C@H](C(=O)NCC(=O)N[C@@H](CCCNC(=N)N)C(=O)N[C@@H](CC(C)C)C(N)=O)[C@@H](C)CC) [compound 6] | − | −
17 | 8 (S[AllylGly]IGRL-NH2; N-terminus assumed; SMILES C=CC[C@H](NC(=O)[C@@H](N)CO)C(=O)N[C@H](C(=O)NCC(=O)N[C@@H](CCCNC(=N)N)C(=O)N[C@@H](CC(C)C)C(N)=O)[C@@H](C)CC) [compound 8] | − | −
18 | 5 (M[AllylGly]IGRL-NH2; N-terminus assumed; SMILES C=CC[C@H](NC(=O)[C@@H](N)CCSC)C(=O)N[C@H](C(=O)NCC(=O)N[C@@H](CCCNC(=N)N)C(=O)N[C@@H](CC(C)C)C(N)=O)[C@@H](C)CC) [compound 5] | + | −
19 | 59 (F[AllylGly]IGGL-NH2; N-terminus assumed; SMILES C=CC[C@H](NC(=O)[C@@H](N)Cc1ccccc1)C(=O)N[C@H](C(=O)NCC(=O)NCC(=O)N[C@@H](CC(C)C)C(N)=O)[C@@H](C)CC) [compound 59] | + | +
20 | 24 (F[AllylGly]TGRL-NH2; N-terminus assumed; SMILES C=CC[C@H](NC(=O)[C@@H](N)Cc1ccccc1)C(=O)N[C@H](C(=O)NCC(=O)N[C@@H](CCCNC(=N)N)C(=O)N[C@@H](CC(C)C)C(N)=O)[C@@H](C)O) [compound 24] | − | −
21 | 58 (F[AllylGly]IGQL-NH2; N-terminus assumed; SMILES C=CC[C@H](NC(=O)[C@@H](N)Cc1ccccc1)C(=O)N[C@H](C(=O)NCC(=O)N[C@@H](CCC(N)=O)C(=O)N[C@@H](CC(C)C)C(N)=O)[C@@H](C)CC) [compound 58] | − | −
22 | 20 (R[AllylGly]IGRL-NH2; N-terminus assumed; SMILES C=CC[C@H](NC(=O)[C@@H](N)CCCNC(=N)N)C(=O)N[C@H](C(=O)NCC(=O)N[C@@H](CCCNC(=N)N)C(=O)N[C@@H](CC(C)C)C(N)=O)[C@@H](C)CC) [compound 20] | + | −
23 | 48 (F[AllylGly]IQRL-NH2; N-terminus assumed; SMILES C=CC[C@H](NC(=O)[C@@H](N)Cc1ccccc1)C(=O)N[C@H](C(=O)N[C@@H](CCC(N)=O)C(=O)N[C@@H](CCCNC(=N)N)C(=O)N[C@@H](CC(C)C)C(N)=O)[C@@H](C)CC) [compound 48] | + | +
24 | 25 (F[AllylGly]LGRL-NH2; N-terminus assumed; SMILES C=CC[C@H](NC(=O)[C@@H](N)Cc1ccccc1)C(=O)N[C@@H](CC(C)C)C(=O)NCC(=O)N[C@@H](CCCNC(=N)N)C(=O)N[C@@H](CC(C)C)C(N)=O) [compound 25] | + | +
